# Assays:
# [1] = target: T1, equine serum butyrylcholinesterase (BChE, EC 3.1.1.8) (Equus caballus, UniProt P81908); assay: Inhibition of equine serum butyrylcholinesterase (Ellman assay); format: biochemical; conditions: read-out: Inhibition % at 20 µM, Equine BChE
# T1 construct: equine serum butyrylcholinesterase (BChE, EC 3.1.1.8); purchased Sigma-Aldrich (Saint Louis, MO, USA); host or cells: equine serum
# Procedure, shortened: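 Ellman colorimetric assay with 0.02 unit/mL BChE, 1 mM butyrylthiocholine iodide and 0.33 mM DTNB, 2% (v/v) DMSO final; substrate added after enzyme-compound mixing. Residual activity versus inhibitor-free control, blanks without enzyme; triplicates, IC50 by linear regression.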
# [2] = target: porcine liver carboxylesterase (CES, EC 3.1.1.1) (Sus scrofa, UniProt Q29550); assay: Porcine liver CES inhibition kinetics (Lineweaver-Burk); format: biochemical; conditions: mixed type inhibition; mean ± SEM
# Method: To elucidate the inhibition mechanisms for active compounds, porcine liver CES residual activities were determined in the presence of 3 increasing concentrations of a test compound and 5–6 decreasing concentrations of the substrates. Test compounds were incubated with the enzymes at 25 °C for 5 min, followed by the addition of substrates. A parallel control was made for an assay of the rate of hydrolysis of the same concentrations of substrates in solutions with no inhibitor. Linear regression of 1/V versus 1/[S] double-reciprocal (Lineweaver-Burk) plots was used to determine the inhibition constants for the competitive component (Ki) and noncompetitive component (αKi).
# Measurements were performed in a Bio-Rad Benchmark Plus microplate reader. Each experiment was performed in triplicate. Plots, linear regressions and values of IC50, were determined using Origin 6.1 for Windows, OriginLab (Northampton, MA, USA). Results were calculated using GraphPad Prism version 6.05 for Windows, GraphPad Software (La Jolla, CA, USA) and presented as mean ± SEM.
# [3] = Ferric reducing antioxidant power (FRAP) assay; conditions: 20 μM; n.a. = inactive
# Excerpt: The FRAP assay measures the ability of anti-oxidants to reduce the ferric 2,4,6-tripyridyl-s-triazine complex [Fe(TPTZ)2]^3+ to the intensely blue ferrous colored complex [Fe(TPTZ)2]^2+ with an absorption maximum at λ = 593 nm. The reducing ability of a compound is an indicator of its potential anti-oxidant activity. 2,4,6-Tris(pyridin-2-yl)-1,3,5-triazine (TPTZ), FeCl3·6H2O, Trolox and DMSO were obtained from Sigma-Aldrich Chemical Co (St. Louis, MO, USA).
# The ferric reducing ability of the compounds was determined by the method in microplate adapted version described in [116]. The FRAP reagent was prepared by mixing acetate buffer (0.3 M, pH 3.6), TPTZ (10 mM in 40 mM HCl) and FeCl3·6H2O (20 mM in distilled water) in a ratio of 10:1:1 immediately before use. Compounds were dissolved in DMSO and tested in the concentration 20 μM. The solvent content in the reaction mixture was 4% (v/v). The test compounds (10 μL of 0.5 mM solution) were added to the FRAP reagent solution (240 μL) and mixed thoroughly. The reaction was carried out at 37 °C in the dark; the incubation time was 1 h. The absorbance at 600 nm was monitored spectrophotometrically by a FLUOStar OPTIMA microplate reader (BMG Labtech, Ortenberg, Germany) at 37 °C. Trolox was used as a reference compound. Values were obtained from four replicates of each sample in three independent experiments.
# The ferric reducing ability of compounds was expressed as TE units (antioxidant activity in Trolox equivalent), the values calculated as the ratio of the concentrations of Trolox and the test compound resulting in the same effect. The calculations were carried out using Origin 6.1 for Windows. Results were presented as mean ± SEM, calculated using GraphPad Prism version 6.05 for Windows, GraphPad Software.
# [4] = test system: Vero cells; assay: Live cell visualization (fluorescent staining, confocal microscopy); format: cell-based, African green monkey; conditions: 1 × 10^–4 M, laser excitation
# Excerpt: Tartrazine, having 4-(4-sulfonatophenylazo)-5-pyrazolone moiety, is widely used as a synthetic lemon-yellow azo dye for food coloring. Many reports about the pyrazolone-based dyes for different purposes have been published to date. However, there are no reports describing 4-AHPs’ use for the biovisualization of living cells. In this work, we studied the potential of compounds 5f, 6a, 9a for the fluorescent visualization of the Vero cell structure (African green monkey kidney epithelium). Cells stained with the compound at a concentration of 1 × 10^–4 M in DMEM were examined using an LSM-710 laser scanning confocal microscope.
# The suitability of substances for fluorescent imaging of cellular structures was studied on Vero cell culture (African green monkey kidney epithelium) and CHO (Chinese hamster ovary). The culture is supported in DMEM (Gibco, Uoltem, USA) with addition of 10% fetal bovine serum (Gibco, Uoltem, USA) and a mixture of gentamicin and streptomycin (Biolot, Moscow, Russia).
# The cells were cultivated into specialized Petri dishes with a glass bottom for staining. Staining was carried out with substances at a concentration of 1 × 10^–4 M. For that, the solution of substances was preliminarily diluted with DMSO (Biolot, Moscow, Russia) to a concentration of 1 × 10^–3 M and then with DMEM to the required concentration. Incubation with the substance was carried out for half an hour in an incubator, in the dark at a temperature of 37 °C. […]
# The stained cells with the substance were examined using an LSM-710 laser scanning confocal microscope (Carl Zeiss, Oberkochen, Germany). […] Fluorescence was excited by lasers with different wavelengths and registered in lambda mode. This mode gets to collect a full spectrum image by analyzing the intensity of fluorescence in different ranges. […] Taking images in this mode also makes it possible to obtain the fluorescence spectrum of the test substance in the cell. However, a confocal microscope is not a spectrofluorometer and the resulting spectra can have very poor quality, especially at low fluorescence intensity.
# Chain of porcine liver carboxylesterase (CES, EC 3.1.1.1) (Q29550 19-566): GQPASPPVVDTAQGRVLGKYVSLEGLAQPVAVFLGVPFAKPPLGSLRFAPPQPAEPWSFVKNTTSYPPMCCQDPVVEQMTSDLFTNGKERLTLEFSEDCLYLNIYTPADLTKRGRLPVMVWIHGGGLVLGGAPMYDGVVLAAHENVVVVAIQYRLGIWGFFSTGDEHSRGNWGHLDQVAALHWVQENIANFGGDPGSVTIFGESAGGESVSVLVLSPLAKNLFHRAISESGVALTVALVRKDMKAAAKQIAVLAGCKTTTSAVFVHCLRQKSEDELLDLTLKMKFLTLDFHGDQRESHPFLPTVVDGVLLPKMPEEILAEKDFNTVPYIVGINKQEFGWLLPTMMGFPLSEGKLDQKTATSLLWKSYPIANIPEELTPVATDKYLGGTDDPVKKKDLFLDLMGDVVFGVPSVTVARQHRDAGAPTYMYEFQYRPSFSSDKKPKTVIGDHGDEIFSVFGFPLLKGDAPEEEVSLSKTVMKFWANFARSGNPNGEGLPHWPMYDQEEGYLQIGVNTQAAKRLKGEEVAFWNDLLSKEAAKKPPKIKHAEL
# T1 sequence (P81908 whole entry): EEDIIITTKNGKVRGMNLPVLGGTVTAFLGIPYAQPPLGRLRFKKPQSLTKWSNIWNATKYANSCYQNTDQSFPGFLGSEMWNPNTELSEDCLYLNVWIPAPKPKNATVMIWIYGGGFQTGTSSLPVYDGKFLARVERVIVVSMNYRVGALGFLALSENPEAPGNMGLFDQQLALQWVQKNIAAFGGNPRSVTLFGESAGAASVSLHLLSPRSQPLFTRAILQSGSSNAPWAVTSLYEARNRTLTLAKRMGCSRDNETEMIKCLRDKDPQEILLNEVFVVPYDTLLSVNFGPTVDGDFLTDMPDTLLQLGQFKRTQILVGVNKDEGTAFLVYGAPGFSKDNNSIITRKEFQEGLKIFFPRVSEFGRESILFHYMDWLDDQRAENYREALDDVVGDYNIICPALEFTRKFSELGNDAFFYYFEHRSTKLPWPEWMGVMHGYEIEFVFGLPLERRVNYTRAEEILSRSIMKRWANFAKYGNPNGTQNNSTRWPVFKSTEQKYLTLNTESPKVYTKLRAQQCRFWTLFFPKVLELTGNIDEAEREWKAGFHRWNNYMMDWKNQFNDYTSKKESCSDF
Compound,inhibition at 20 µM [1] [%],"αKi (non-competitive inhibition constant), CES [2] [µM]","FRAP (TE, antioxidant activity in Trolox equivalents) [3]",acute phototoxicity during cell visualization [4]
"O=C1NN=C(C(F)(F)F)/C1=N/Nc1ccccc1 [5a, (Z)-4-(2-Phenylhydrazinylidene)-5-(trifluoromethyl)-2,4-dihydro-3H-pyrazol-3-one]",10.7 ± 1.8,0.255 ± 0.013,0.09 ± 0.01,
"Cc1ccc(N/N=C2\C(=O)NN=C2C(F)(F)F)cc1 [5b, (4Z)-4-[2-(4-Methylphenyl)hydrazinylidene]-5-(trifluoromethyl)-2,4-dihydro-3H-pyrazol-3-one]",,,0.05 ± 0.02,
"O=C1NN=C(C(F)(F)F)/C1=N/Nc1ccc(Br)cc1 [5c, (4Z)-4-[2-(4-Bromophenyl)hydrazinylidene]-5-(trifluoromethyl)-2,4-dihydro-3H-pyrazol-3-one]",5.9 ± 1,,,
"Cc1ccc(N/N=C2\C(=O)N(C)N=C2C(F)(F)F)cc1 [5d, (4Z)-2-Methyl-4-[2-(4-methylphenyl)hydrazinylidene]-5-(trifluoromethyl)-2,4-dihydro-3H-pyrazol-3-one]",,3.98 ± 0.31,,
"Cc1ccc(N/N=C2\C(=O)N(c3ccccc3)N=C2C(F)(F)F)cc1 [5f, (4Z)-4-[2-(4-Methylphenyl)hydrazinylidene]-2-phenyl-5-(trifluoromethyl)-2,4-dihydro-3H-pyrazol-3-one]",,0.735 ± 0.007,,No acute phototoxicity
"CS(=O)(=O)c1ccc(N/N=C2\C(=O)N(c3ccccc3)N=C2C(F)(F)F)cc1 [5m, (4Z)-4-(2-[4-(Methylsulfonyl)phenyl]hydrazinylidene)-2-phenyl-5-(trifluoromethyl)-2,4-dihydro-3H-pyrazol-3-one]",4 ± 1,,,
"Cc1ccc(N/N=C2\C(=O)N(c3ccc(S(N)(=O)=O)cc3)N=C2C(F)(F)F)cc1 [5p, (4Z)-2-[4-(Aminosulfonyl)phenyl]-4-[2-(4-methylphenyl)hydrazinylidene]-5-(trifluoromethyl)-2,4-dihydro-3H-pyrazol-3-one]",3.6 ± 0.9,,,
"Cc1ccc(N/N=C2\C(=O)NN=C2C(F)(F)C(F)(F)F)cc1 [6a, (4Z)-4-[2-(4-Methylphenyl)hydrazinylidene]-5-(pentafluoroethyl)-2,4-dihydro-3H-pyrazol-3-one]",3.3 ± 0.9,,0.15 ± 0.02,No acute phototoxicity
"Cc1ccc(N/N=C2\C(=O)N(c3ccccc3)N=C2C(F)(F)C(F)(F)F)cc1 [6b, (4Z)-4-[2-(4-Methylphenyl)hydrazinylidene]-5-(pentafluoroethyl)-2-phenyl-2,4-dihydro-3H-pyrazol-3-one]",5.7 ± 1.3,,,
"Cc1ccc(N/N=C2\C(=O)NN=C2C(F)(F)C(F)(F)C(F)(F)F)cc1 [7a, (4Z)-5-(Heptafluoropropyl)-4-[2-(4-methylphenyl)hydrazinylidene]-2,4-dihydro-3H-pyrazol-3-one]",10.5 ± 1.1,,,
"Cc1ccc(N/N=C2\C(=O)N(c3ccccc3)N=C2C(F)(F)C(F)(F)C(F)(F)F)cc1 [7b, (4Z)-5-(Heptafluoropropyl)-4-[2-(4-methylphenyl)hydrazinylidene]-2-phenyl-2,4-dihydro-3H-pyrazol-3-one]",4.5 ± 1.2,,,
"CC1=NNC(=O)/C1=N\Nc1ccc(C)cc1 [9a, (4Z)-5-Methyl-4-[2-(4-methylphenyl)hydrazinylidene]-2,4-dihydro-3H-pyrazol-3-one]",4.3 ± 1,,0.51 ± 0.01,No acute phototoxicity
"CC1=NN(c2ccccc2)C(=O)/C1=N\Nc1ccc(C)cc1 [9b, (4Z)-5-Methyl-4-[2-(4-methylphenyl)hydrazinylidene]-2-phenyl-2,4-dihydro-3H-pyrazol-3-one]",,,0.11 ± 0.01,
